Measurements published in patent publication US7071218B2, “N-substituted heterocycles for the treatment of hypercholesteremia, dyslipidemia and other metabolic disorders; cancer, and other diseases” (Incyte San Diego Incorporated, priority 2001, dated 2006).

Key:
3T3-L1 cells = test: 3T3-L1 adipocyte differentiation (lipid content), alone or with rosiglitazone (BRL49653); format: cell-based, mouse; conditions: 7 days of treatment; for lipid accumulation / differentiation of 3T3-L1 cells by the compound alone: 1e-10M to 1e-5M; for inhibition of adipocyte differentiation / lipid accumulation induced by rosiglitazone (BRL49653): in combination with rosiglitazone
Excerpt: The mouse preadipocyte cell line 3T3-L1 has been extensively used to study adipocyte differentiation. Upon stimulation with differentiating agents, preadipocytes typically undergo one cell cycle expansion and then they are growth arrested and dramatically change their shape to become more rounded cells, loaded with lipids, in a fashion closely reflecting adipogenesis in vivo. In this well-known process of differentiation, peroxisome proliferator activated receptor gamma (PPARγ) and retinoid X receptor (RXR) play a key role. PPARγ binds as an obligatory heterodimer with RXR to specific responsive sequences in the promoter region of target genes. In the particular case of PPARγ/RXR heterodimers, both receptors can be activated via their specific ligands. As a consequence of such activation, adipocyte-specific genes are turned on (C/EBP, aP2, LPL, adipsin, etc) and adipocyte differentiation results. Because lipid accumulation is the endpoint of adipocyte differentiation, the quantification of lipids which have accumulated in cells upon treatment with the compound(s) of interest, will indicate the ability of that compound to trigger adipocyte differentiation. More importantly, the potency of that compound can be estimated as well based on the total amount of lipids accumulated. The amount of lipid measured at the end of the assay for each tested compound is here compared to that of Compound 73 at 0.1 μM, which is considered 100% (see FIG. 11A).
In the particular case of measuring the potential antagonistic activity of some compounds, the putative antagonist is combined together with an agonist (such as the PPARγ agonist BRL49653). Thus, the amount of lipids accumulated in response to BRL49653 (considered as 100% in this case), is decreased by the compound with antagonistic activity (see FIG. 11B).
Materials and Methods: Mouse embryo fibroblast 3T3-L1 cell line, from American Type Culture Collection (ATCC), was used as a model of adipocyte differentiation.
Growing medium (GM): DME Dulbecco's modified Eagle's medium containing 4500 mg/L glucose; 4 mM L-glutamine; 10 U/ml Pen-G; 10 mcg/ml and 10% Calf Serum (CS).
Differentiation medium (DM): DME Dulbecco's modified Eagle's medium containing 4500 mg/L glucose; 4 mM L-glutamine; 10 U/ml Pen-G; 10 mcg/ml and 10% Fetal Calf Serum (FCS). Cells are always kept at 10% CO2.
Cells were seeded at 3,000 cells/well in 96 well-tissue culture plates in growing medium.
Two days after reaching confluence, cells were treated with the different compounds of interest in DM (Day 0). Drugs were replaced every 2–3 days in DM. Differentiation was assessed after 7 days of treatment, by measuring the lipid content in the cells, using the Triglyceride (INFINITY) reagent (Quantitative assay). • Controls: All cells, including control cells (vehicle), are treated with the same volume of dimethyl sulfoxide (DMSO) never exceeding 0.1% final solvent concentration. As a positive control for differentiation, cells were treated with 10 μg insulin per ml and 2.5 μM dexamethasone (Ins/Dex).

AKT1/PKBα = target: T1, AKT1/PKBα (Homo sapiens, UniProt P31749); test: In vitro assay for AKT1/PKBα kinase activity inhibition; format: biochemical; conditions: at 5 μM, pre-incubation 10 minute at 30° C.
T1 construct: purchased Upstate 14-276
Experimental: The assay was performed using a similar approach as described by Standaert, Mary L., et al. J. Biol. Chem. 1999, 274, 25308–25316; and Aman, M. J. et al, J. Biol. Chem. 1998, 273, 33922–33928. The assay was performed using purified recombinant His-tagged AKT1/PKBα enzyme purchased from Upstate catalog # 14-276 following the manufacturer instruction. The assay is to measure phosphotransferase activity in purified His-tagged AKT1/PKBα. The purified enzyme is used to transfer the γ phosphate of [γ-32P]-ATP to a specific substrate, AKT/GSK peptide [RPRAATA] (upstate Catalog # 12-340). The phosphorylated substrate is then separated from the residual [γ-32P]ATP by using P81 phosphocellulose paper accompanied with extensive washing followed by quantitation using scintillation counter. The assay is linear for incubation times for up to 30 minutes and incorporation of up to 20% of total ATP. This enzyme assay is rapid, convenient and specific for AKT/PKB.
For testing the effect of Compound 2 on the AKT kinase activity, 0.3 μg AKT was pre-incubated with 1 μl of different Compound 2 stock concentration to give the final indicated concentration in total volume of 20 μl reaction buffer. As control 0.3 μg AKT was incubated with 1 μl Vehicle or alone in total volume of 20 μl reaction buffer. After a 10 minute incubation at 30° C., the kinase reaction was carried out according to the instruction of the manufacturer.

LXR = test: In vitro transactivation assay in CV-1 cells, antagonism of T0901317-induced Gal-LXR activation; format: cell-based; conditions: with 1 μM agonist T0901317
Excerpt: (§1) In vitro screens such as the transactivation assay can be used to measure the ability of a compound to inhibit a nuclear receptor regulating lipid or carbohydrate uptake, synthesis or metabolism. In the assay described herein compounds can be identified that can inhibit activation of the following nuclear receptors: LXR, PPARα, PPARγ and FXR. This activity can be useful to treat lipid disorders such as hypercholesteremia and obesity.
(§2) Cell line: Kidney Green Monkey CV-1 cells.
(§3) Growing culturing medium: Dulbecco's modified Eagle's medium (DMEM) supplememnted with 10% fetal calf serum (FCS).
(§4) Procedure: CV-1 cells were plated in 48 well-plate culture plates, at a density of 10,000 cells/well, 24 h prior to transfection. One to three hours before transfection, cells were fed with fresh medium. A modified calcium phosphate precipitation procedure was used for transient transfection (Pfahl, M. et al., 1990, Methods in Enzymology 189: 256).
(§5) Typically, 40 ng reporter plasmid and 20 ng of each receptor expression vector were mixed, together with 10 ng of β-galactosidase control plasmid (pCH110, Pharmacia, Piscataway, N.J.) and Bluescript plasmid to obtain a total of 400 ng DNA per well. To this mixture 1 μl of 2.5M CaCl2 and 10 μl of BBS buffer, pH 6.95, were added afterward. […]

PPARγ = target: T2, PPARγ (Homo sapiens, UniProt P37231); test: In vitro transactivation assay in CV-1 cells, antagonism of BRL49653-induced Gal-PPARγ activation; format: cell-based; conditions: with 1 μM agonist BRL49653, dose-dependent
T2 construct: expressed in transfected cells; host or cells: CV-1 (green monkey kidney) cells, transient calcium phosphate transfection
T2 sequence (P37231 238-503 limits assumed): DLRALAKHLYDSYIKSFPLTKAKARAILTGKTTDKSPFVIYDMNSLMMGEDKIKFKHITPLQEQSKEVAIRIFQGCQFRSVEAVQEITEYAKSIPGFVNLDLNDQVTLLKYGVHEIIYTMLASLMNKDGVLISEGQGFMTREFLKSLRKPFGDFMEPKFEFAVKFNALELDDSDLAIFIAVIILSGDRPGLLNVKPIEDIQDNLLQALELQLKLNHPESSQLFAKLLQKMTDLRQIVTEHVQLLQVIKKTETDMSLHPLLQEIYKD
Excerpt: as §1, §2, §3, §4, §5

T1 sequence (P31749 whole entry): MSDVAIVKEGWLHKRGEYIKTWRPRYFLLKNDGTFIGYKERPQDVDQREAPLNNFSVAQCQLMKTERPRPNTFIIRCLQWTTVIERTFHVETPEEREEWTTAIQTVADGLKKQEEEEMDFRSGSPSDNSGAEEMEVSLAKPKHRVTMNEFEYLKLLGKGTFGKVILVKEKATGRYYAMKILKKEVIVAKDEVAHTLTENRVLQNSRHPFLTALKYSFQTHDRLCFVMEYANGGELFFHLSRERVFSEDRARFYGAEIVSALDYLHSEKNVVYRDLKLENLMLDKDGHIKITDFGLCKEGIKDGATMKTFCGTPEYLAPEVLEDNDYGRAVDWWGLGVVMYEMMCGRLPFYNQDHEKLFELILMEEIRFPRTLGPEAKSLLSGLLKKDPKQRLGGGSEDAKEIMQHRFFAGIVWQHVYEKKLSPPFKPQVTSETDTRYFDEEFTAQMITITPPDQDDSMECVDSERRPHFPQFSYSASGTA

Row | inhibition of AKT activity compared to Control or Vehicle (AKT1/PKBα) | SMILES | lipid accumulation / differentiation of 3T3-L1 cells by the compound alone (3T3-L1 cells) | inhibition of adipocyte differentiation / lipid accumulation induced by rosiglitazone (BRL49653) (3T3-L1 cells) | other results
1 |  | COc1ccc(/C=C2\SC(=S)N(CC(=O)O)C2=O)cc1-c1cc2c(cc1C)C(C)(C)CCC2(C)C [Compound 1, {5-[4-Methoxy-3-(3,5,5,8,8-pentamethyl-5,6,7,8-tetrahydro-naphthalen-2-yl)-benzylidene]-4-oxo-2-thioxo-thiazolidin-3-yl}-acetic acid] | lacked that ability | potently inhibited | 
2 | showed inhibition | Cc1cc2c(cc1-c1cc(/C=C3\SC(=S)N(CC(=O)O)C3=O)ccc1OC(F)(F)F)C(C)(C)CCC2(C)C [Compound 2, {5-[4-Trifluoromethoxy-3-(3,5,5,8,8-pentamethyl-5,6,7,8-tetrahydronaphthalen-2-yl)-benzylidene]-4-oxo-2-thioxo-thiazolidin-3-yl}-acetic acid] | lacked that ability | potently inhibited | 
3 | showed inhibition | COc1ncc(/C=C2\SC(=S)N(CC(=O)O)C2=O)cc1-c1cc2c(cc1C)C(C)(C)CCC2(C)C [Compound 3, {5-[6-Methoxy-5-(3,5,5,8,8-pentamethyl-5,6,7,8-tetrahydro-naphthalen-2-yl)-pyridin-3-ylmethylene]-4-oxo-2-thioxo-thiazolidin-3-yl}-acetic acid] |  |  | 
4 |  | COc1ccc(/C=C2\SC(=O)N(CCc3ccccn3)C2=O)cc1-c1cc2c(cc1C)C(C)(C)CCC2(C)C [Compound 6, 5-[4-Methoxy-3-(3,5,5,8,8-pentamethyl-5,6,7,8-tetrahydro-naphthalen-2-yl)-benzylidene]-3-(2-pyridin-2-yl-ethyl)-thiazolidine-2,4-dione] |  |  | melting point: 170 to 171 °C
5 |  | COc1cc2c(cc1-c1c(/C=C3\SC(=S)N(CC(=O)O)C3=O)cc(-c3ccccc3)cc1OC)C(C)(C)CCC2(C)C [Compound 8, {5-[5-Phenyl-3-methoxy-2-(3-methoxy-5,5,8,8-tetramethyl-5,6,7,8-tetrahydro-naphthalen-2-yl)-benzylidene]-4-oxo-2-thioxo-thiazolidin-3-yl}-acetic acid] | lacked the ability to differentiate 3T3-L1 cells by themselves | strongly inhibited | antagonism of T0901317-induced LXR activation (in words) (LXR): only antagonize the activation activity of BRL49653 for PPARγ; inhibition at 10 µM (PPARγ): 80 to 90%
6 | showed inhibition | CN(C)c1ccc(/C=C2\SC(=S)N(CC(=O)O)C2=O)cc1-c1cc2c(cc1N(C)C)C(C)(C)CCC2(C)C [Compound 10, {5-[4-Dimethylamino-3-(3-dimethylamino-5,5,8,8-tetramethyl-5,6,7,8-tetrahydro-naphthalen-2-yl)-benzylidene]-4-oxo-2-thioxo-thiazolidin-3-yl}-acetic acid] |  |  | 
7 | showed inhibition | CCOc1ccc(-c2ccc(OC)c(C(C)(C)C)c2)cc1/C=C1\SC(=S)N(CC(=O)O)C1=O [Compound 67] |  |  | 
8 |  | COc1ccc(/C=C2\SC(=S)NC2=O)cc1-c1cc2c(cc1C)C(C)(C)CCC2(C)C [Compound 71, reference compound] | induced lipid accumulation |  | 
9 |  | COc1cc2c(cc1-c1c(/C=C3\SC(=S)N(CC(=O)O)C3=O)cc(-c3ccccc3)cc1OC)C(C)(C)CCC2(C)C [Compound 72, reference compound] | induced lipid accumulation |  | 
